Patent publication US20050058695A1, “Norethindrone sustained release formulations and methods associated therewith” (Watson Pharmaccuticals, Inc., priority 2002, published 2005)

Legend:
[1] = cited from earlier work
[2] = in situ conversion of norethindrone acetate to norethindrone in the transdermal formulation; assay type: physicochemical

For `C#C[C@]1(OC(C)=O)CC[C@H]2[C@@H]3CCC4=CC(=O)CC[C@@H]4[C@H]3CC[C@@]21C` [NEA, norethindrone acetate], the “time at which maximum skin flux for NEA is attained” value ([1]; FIG. 3 of U.S. Pat. No. 5,980,932) is given as “only after the second day of administration”, the “time at which maximum NEA skin flux is obtained following administration” value ([1]; FIGS. 1 and 2 of U.S. Patent Application Publication No. 2003/0152615, in h) is given as roughly 48 and the “conversion to norethindrone in situ in the transdermal formulation” value [2] is given as “does not convert to norethindrone in situ”.
